Experimental data as given in ChEMBL document CHEMBL1139277, “Synthesis of tyrosinase inhibitory (4-oxo-4H-pyran-2-yl)acrylic acid ester derivatives” (Bioorg Med Chem Lett, 2009).

What was measured:
[1] = system: B16-F10; test: Cytotoxicity against mouse B16F10 cells at 40 ug/ml after 72 hrs by MTT assay; assay type: functional
[2] = system: B16-F10; test: Inhibition of melanin production in mouse B16F10 cells at 40 ug/ml after 72 hrs relative to control; assay type: functional; details: B16-F10, 72 h
[3] = system: B16-F10; test: Inhibition of melanin production in mouse B16F10 cells at 20 ug/ml after 72 hrs relative to control; assay type: functional; details: B16-F10, 72 h
[4] = target: T1, Tyrosinase (Agaricus bisporus, UniProt O42713); test: Inhibition of mushroom tyrosinase
T1 sequence (O42713 whole entry): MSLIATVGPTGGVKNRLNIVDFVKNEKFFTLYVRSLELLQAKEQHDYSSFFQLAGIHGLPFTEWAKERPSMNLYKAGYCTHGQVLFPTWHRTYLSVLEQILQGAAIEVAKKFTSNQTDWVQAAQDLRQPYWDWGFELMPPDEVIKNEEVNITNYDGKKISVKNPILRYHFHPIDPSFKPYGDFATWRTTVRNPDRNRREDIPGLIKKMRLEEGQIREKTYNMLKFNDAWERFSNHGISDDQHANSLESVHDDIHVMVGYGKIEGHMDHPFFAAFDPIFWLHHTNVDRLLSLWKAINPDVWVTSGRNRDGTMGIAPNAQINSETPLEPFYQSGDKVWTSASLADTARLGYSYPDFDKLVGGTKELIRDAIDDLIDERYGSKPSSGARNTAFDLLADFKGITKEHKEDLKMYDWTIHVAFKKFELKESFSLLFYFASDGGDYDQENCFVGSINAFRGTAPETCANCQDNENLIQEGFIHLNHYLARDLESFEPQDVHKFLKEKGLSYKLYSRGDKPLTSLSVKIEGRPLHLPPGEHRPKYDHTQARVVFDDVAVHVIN

[5] = system: B16-F10; test: Cytotoxicity against mouse B16F10 cells at 20 ug/ml after 72 hrs by MTT assay; assay type: functional

IC50 [4] [µM] | Structure (SMILES) | Activity [1] [%] | inhibition at 40 µg/mL [2] [%] | inhibition at 20 µg/mL [3] [%] | Activity [5] [%]
26.5 | O=C(/C=C/c1cc(=O)c(O)co1)OCCOCCO | 89.4 | 32.4 | 20.1 | 84.6
98.1 | COCCOC(=O)/C=C/c1cc(=O)c(O)co1 | 65.4 | 47.8 | 29.6 | 81.1
79.2 | O=C(/C=C/c1cc(=O)c(O)co1)OCCOCCOCCO | 78.5 | 17.9 | 8.7 | 84.9
74.9 | O=C(/C=C/c1cc(=O)c(O)co1)OCCO | 74.8 | 41.6 | 30 | 80.5
67.6 | COCCOCCOCCOC(=O)/C=C/c1cc(=O)c(O)co1 | 79.7 | 25.4 | 11 | 83.9
36.3 | CCOC(=O)/C=C/c1cc(=O)c(O)co1 | 39.2 | 65 | 46.1 | 72
80.3 | CC(C)OC(=O)/C=C/c1cc(=O)c(O)co1 | 37.4 | 69.8 | 19.5 | 50.9
> 400 | CCCCCCCCOC(=O)/C=C/c1cc(=O)c(O)co1 | 62.5 | 54.6 | 25 | 85
59.1 | COCCOCCOC(=O)/C=C/c1cc(=O)c(O)co1 | 83.4 | 24 | 19.5 | 88.7
